Measurements reported in the supplement of paper PMC10307832.

Experiments:
Assay in all cases: relative viability (nuclei count vs DMSO), 5 days (fraction); higher = more cells survive
XMD14-99 + Olaparib = compound: CN1CCN(CC1)C2=CC(=C(C=C2)NC3=NC(=C(S3)C(=O)C4=C(C=CC=C4Cl)Cl)N)OC [XMD14-99] + O=C(c1cc(Cc2n[nH]c(=O)c3ccccc23)ccc1F)N1CCN(C(=O)C2CC2)CC1 [Olaparib] (partner 8 µM)
In short: (§1)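 Five library-drug doses in √10 steps were combined with a fixed anchor-drug dose, or a single drug was given alone, by pin tool to lung cancer cell lines in 1536-well plates the day after seeding. Nuclei were stained and counted after 5 days. Relative viability is the nuclei count in treated wells over that in vehicle wells, taken as the median of duplicate plates.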

AZD1208 + Decitabine = compound: N[C@@H]1CCCN(c2c(/C=C3\SC(=O)NC3=O)cccc2-c2ccccc2)C1 [AZD1208] + Nc1ncn([C@H]2C[C@H](O)[C@@H](CO)O2)c(=O)n1 [Decitabine] (partner 2 µM)
In short: as §1

XMD14-99 + Lapatinib = compound: CN1CCN(CC1)C2=CC(=C(C=C2)NC3=NC(=C(S3)C(=O)C4=C(C=CC=C4Cl)Cl)N)OC [XMD14-99] + CS(=O)(=O)CCNCc1ccc(-c2ccc3ncnc(Nc4ccc(OCc5cccc(F)c5)c(Cl)c4)c3c2)o1 [Lapatinib] (partner 2 µM)
In short: as §1

AZD1208 + Tozasertib = compound: N[C@@H]1CCCN(c2c(/C=C3\SC(=O)NC3=O)cccc2-c2ccccc2)C1 [AZD1208] + Cc1cc(Nc2cc(N3CCN(C)CC3)nc(Sc3ccc(NC(=O)C4CC4)cc3)n2)n[nH]1 [Tozasertib] (partner 0.1 µM)
In short: as §1

| Cell Line | relative viability (XMD14-99 + Olaparib; first compound 0.08 µM) | relative viability (XMD14-99 + Olaparib; first compound 0.8 µM) | relative viability (XMD14-99 + Olaparib; first compound 2.53 µM) | relative viability (XMD14-99 + Olaparib; first compound 8 µM) | relative viability (AZD1208 + Decitabine; first compound 0.08 µM) | relative viability (AZD1208 + Decitabine; first compound 0.253 µM) | relative viability (AZD1208 + Decitabine; first compound 0.8 µM) | relative viability (AZD1208 + Decitabine; first compound 2.53 µM) | relative viability (AZD1208 + Decitabine; first compound 8 µM) | relative viability (XMD14-99 + Lapatinib; first compound 0.08 µM) | relative viability (XMD14-99 + Lapatinib; first compound 0.8 µM) | relative viability (XMD14-99 + Lapatinib; first compound 2.53 µM) | relative viability (XMD14-99 + Lapatinib; first compound 8 µM) | relative viability (AZD1208 + Tozasertib; first compound 0.08 µM) | relative viability (AZD1208 + Tozasertib; first compound 0.253 µM) | relative viability (AZD1208 + Tozasertib; first compound 0.8 µM) | relative viability (AZD1208 + Tozasertib; first compound 2.53 µM) | relative viability (AZD1208 + Tozasertib; first compound 8 µM) |
| --- | --- | --- | --- | --- | --- | --- | --- | --- | --- | --- | --- | --- | --- | --- | --- | --- | --- | --- |
| LCLC-97TM1 | 0.415 | 0.351 | 0.35 | 0.209 | 0.175 | 0.209 | 0.238 | 0.233 | 0.178 | 1.06 | 0.815 | 0.786 | 0.583 | 0.223 | 0.23 | 0.175 | 0.135 | 0.132 |
| LK-2 | 0.751 | 0.591 | 0.685 | 0.419 | 0.316 | 0.291 | 0.23 | 0.274 | 0.195 | 0.801 | 1.01 | 0.823 | 0.949 | 0.157 | 0.2 | 0.169 | 0.13 | 0.168 |
| LOU-NH91 | 0.904 | 0.919 | 0.891 | 0.692 | 0.766 | 0.798 | 0.793 | 0.798 | 0.798 | 0.706 | 0.841 | 0.76 | 0.64 | 0.711 | 0.558 | 0.62 | 0.556 | 0.516 |
| LU99A | 0.304 | 0.263 | 0.19 | 0.135 | 0.991 | 0.899 | 0.795 | 0.852 | 0.799 | 0.94 | 0.976 | 0.879 | 0.695 | 0.288 | 0.304 | 0.276 | 0.3 | 0.203 |
